# Source: patent US20230212122A1, “MITOCHONDRIAL TARGETING COMPOUNDS FOR THE TREATMENT OF ASSOCIATED DISEASES” (The Regents of the University of Michigan, priority 2020, published 2023)
# Tests used:
# Format in all cases: cell-based
# [1] = system: BxPc3 cells; assay: MTT assay, cancer cell growth inhibition (BxPC-3); settings: Homo sapiens, BXPC-3, 168 h, 7 days of treatment
# Procedure: (§1) Measurement of cancer cell growth inhibition of the compounds of invention Cytotoxicity of the compounds was assessed by MTT assay. In brief, MIA PaCa-2 cells or BxPc3 cells were seeded in 96-well microtitre plates at density of 200 cells/well. After overnight attachment, cells were treated with compounds at indicated concentration. After 7 days of treatment, MTT solution (3 mg/ml, 20 μl) was added to each well and cells were incubated for 3 h at 37° C. After incubation, media from each well was removed and the dark blue formazan crystals formed by live cells were dissolved in DMSO ([…] per well). The absorbance intensity was measured at 570 nm on a microplate reader (Molecular Devices, Sunnyvale, Calif., USA). The half maximal inhibitory concentration (IC50) value were calculated using 4 or 6 dots curve plotted with Cumulative Gaussian equation or Log(inhibitor) vs. response equation in GraphPad Prism.
# [2] = system: UM16 cell line; assay: Nascent RNA sequencing (Bru-seq), gene fold change; settings: 5 μM, 4 hours
# From the text: Consistent with this observation, there are also massive metabolite pathways influenced including starch and sucrose metabolism, glycolysis and gluconeogenesis, purine metabolism, pyrimidine metabolism, N-glycan biosynthesis, etc.
# [3] = system: MIA PaCa-2 cells; assay: MTT assay, cancer cell growth inhibition (MIA PaCa-2); settings: Homo sapiens, MIA PaCa-2, 168 h, 7 days of treatment, read-out: MiaPaCa IC50
# Procedure: as §1
smiles,measurement,setting,value
"CCOC(=O)[C@@H]1CCCN(S(=O)(=O)c2ccc(S(=O)(=O)N(CC)CC)cc2)C1 [DX2-201, ethyl (R)-1-((4-(N,N-diethylsulfamoyl)phenyl)sulfonyl)piperidine-3-carboxylate]",IC50,[1],0.63 ± 0.24 µM
same,Fold change AC008521.2,"[2]; non-coding RNA, downregulated",0.1876
same,Fold change AC019257.2,"[2]; non-coding RNA, downregulated",0.2345
same,Fold change AC091133.4,"[2]; non-coding RNA, downregulated",0.2345
same,Fold change AC092916.2,"[2]; non-coding RNA, downregulated",0.1706
same,Fold change AC106037.1,"[2]; non-coding RNA, downregulated",0.2345
same,Fold change AL096870.2,"[2]; non-coding RNA, downregulated",0.02465
same,Fold change BX679664.2,"[2]; non-coding RNA, downregulated",0.1876
same,Fold change C1orf50,"[2]; non-coding RNA, downregulated",0.1876
same,Fold change MIR545,"[2]; non-coding RNA, downregulated",0.1876
same,Fold change MIR5000,"[2]; non-coding RNA, downregulated",0.05752
same,Fold change RN7SL128P,"[2]; non-coding RNA, downregulated",0.1876
same,Fold change RN7SL388P,"[2]; non-coding RNA, downregulated",0.2085
same,Fold change RN7SL589P,"[2]; non-coding RNA, downregulated",0.2165
same,Fold change RN7SL833P,"[2]; non-coding RNA, downregulated",0.2345
same,Fold change RNU1-19P,"[2]; non-coding RNA, downregulated",0.1564
same,Fold change RNU1-73P,"[2]; non-coding RNA, downregulated",0.09381
same,Fold change RNU6-122P,"[2]; non-coding RNA, downregulated",0.04314
same,Fold change RNU6-398P,"[2]; non-coding RNA, downregulated",0.03451
same,Fold change RNU6-519P,"[2]; non-coding RNA, downregulated",0.1564
same,Fold change RNU6-548P,"[2]; non-coding RNA, downregulated",0.05752
same,Fold change SNORA73,"[2]; non-coding RNA, downregulated",0.2345
same,Fold change TERC,"[2]; non-coding RNA, downregulated",0.04314
same,Fold change Y_RNA,"[2]; non-coding RNA, downregulated",0.02876
same,Fold change Z99127.3,"[2]; non-coding RNA, downregulated",0.1876
same,Fold change ZBTB40-IT1,"[2]; non-coding RNA, downregulated",0.2345
same,Fold change AC007686.1,"[2]; non-coding RNA, upregulated",2.01
same,Fold change AC007952.4,"[2]; non-coding RNA, upregulated",2.345
same,Fold change AC008687.3,"[2]; non-coding RNA, upregulated",2.033
same,Fold change AC034198.2,"[2]; non-coding RNA, upregulated",2.345
same,Fold change AC105020.4,"[2]; non-coding RNA, upregulated",1.782
same,Fold change AC139887.1,"[2]; non-coding RNA, upregulated",2.064
same,Fold change AL136982.3,"[2]; non-coding RNA, upregulated",2.217
same,Fold change AL161729.3,"[2]; non-coding RNA, upregulated",1.993
same,Fold change AL627171.1,"[2]; non-coding RNA, upregulated",1.841
same,Fold change AL645939.5,"[2]; non-coding RNA, upregulated",1.876
same,Fold change AP001527.2,"[2]; non-coding RNA, upregulated",2.217
same,Fold change AP001619.1,"[2]; non-coding RNA, upregulated",1.62
same,Fold change AP003168.2,"[2]; non-coding RNA, upregulated",1.689
same,Fold change DPRXP4,"[2]; non-coding RNA, upregulated",3.19
same,Fold change EIF5AP3,"[2]; non-coding RNA, upregulated",1.876
same,Fold change HMGN1P15,"[2]; non-coding RNA, upregulated",2.111
same,Fold change RNA5SP379,"[2]; non-coding RNA, upregulated",2.814
same,Fold change RNU6-182P,"[2]; non-coding RNA, upregulated",20.4
same,Fold change RNU6-396P,"[2]; non-coding RNA, upregulated",1.876
same,Fold change RNU6-531P,"[2]; non-coding RNA, upregulated",2.814
same,Fold change RNU6-564P,"[2]; non-coding RNA, upregulated",2.814
same,Fold change RNU6-1272P,"[2]; non-coding RNA, upregulated",25.5
same,Fold change RNY3P2,"[2]; non-coding RNA, upregulated",1.876
same,Fold change SNORD124,"[2]; non-coding RNA, upregulated",1.876
same,Fold change Y_RNA,"[2]; non-coding RNA, upregulated",15.3
same,Fold change A2ML1,"[2]; protein-coding, downregulated",0.582
same,Fold change ARRDC4,"[2]; protein-coding, downregulated",0.4315
same,Fold change BDKRB2,"[2]; protein-coding, downregulated",0.6044
same,Fold change DGAT2,"[2]; protein-coding, downregulated",0.5129
same,Fold change DPAGT1,"[2]; protein-coding, downregulated",0.6034
same,Fold change FAM86C1,"[2]; protein-coding, downregulated",0.6053
same,Fold change FAM86HP,"[2]; protein-coding, downregulated",0.5946
same,Fold change FAM200A,"[2]; protein-coding, downregulated",0.5595
same,Fold change FOXA2,"[2]; protein-coding, downregulated",0.6075
same,Fold change G0S2,"[2]; protein-coding, downregulated",0.4666
same,Fold change GGCT,"[2]; protein-coding, downregulated",0.6012
same,Fold change HLF,"[2]; protein-coding, downregulated",0.4727
same,Fold change INTS5,"[2]; protein-coding, downregulated",0.4515
same,Fold change L3HYPDH,"[2]; protein-coding, downregulated",0.6301
same,Fold change PCED1A,"[2]; protein-coding, downregulated",0.576
same,Fold change PLLP,"[2]; protein-coding, downregulated",0.5843
same,Fold change POLR2J4,"[2]; protein-coding, downregulated",0.4775
same,Fold change RRS1,"[2]; protein-coding, downregulated",0.5686
same,Fold change SCARNA5,"[2]; protein-coding, downregulated",0.4376
same,Fold change SLC5A6,"[2]; protein-coding, downregulated",0.6234
same,Fold change SNHG21,"[2]; protein-coding, downregulated",0.5497
same,Fold change SNORA62,"[2]; protein-coding, downregulated",0.5968
same,Fold change SNORA71C,"[2]; protein-coding, downregulated",0.6023
same,Fold change TMED1,"[2]; protein-coding, downregulated",0.6232
same,Fold change TXNIP,"[2]; protein-coding, downregulated",0.4997
same,Fold change ANKRD37,"[2]; protein-coding, upregulated",2.182
same,Fold change ARG2,"[2]; protein-coding, upregulated",2.569
same,Fold change ARHGAP30,"[2]; protein-coding, upregulated",1.728
same,Fold change ARRDC3,"[2]; protein-coding, upregulated",1.707
same,Fold change BNIP3L,"[2]; protein-coding, upregulated",1.723
same,Fold change CCNG2,"[2]; protein-coding, upregulated",1.668
same,Fold change CREBRF,"[2]; protein-coding, upregulated",1.676
same,Fold change ERRFI1,"[2]; protein-coding, upregulated",1.77
same,Fold change FOXO6,"[2]; protein-coding, upregulated",1.954
same,Fold change HDAC5,"[2]; protein-coding, upregulated",1.811
same,Fold change KLHL24,"[2]; protein-coding, upregulated",2.336
same,Fold change LOXL4,"[2]; protein-coding, upregulated",1.73
same,Fold change MXD4,"[2]; protein-coding, upregulated",1.812
same,Fold change MXI1,"[2]; protein-coding, upregulated",1.785
same,Fold change NDRG1,"[2]; protein-coding, upregulated",2.874
same,Fold change PDK1,"[2]; protein-coding, upregulated",1.779
same,Fold change PPP1R3C,"[2]; protein-coding, upregulated",1.699
same,Fold change PRDM1,"[2]; protein-coding, upregulated",1.748
same,Fold change RNF122,"[2]; protein-coding, upregulated",1.915
same,Fold change SEMA3B,"[2]; protein-coding, upregulated",1.668
same,Fold change SOX12,"[2]; protein-coding, upregulated",1.903
same,Fold change UPRT,"[2]; protein-coding, upregulated",1.74
same,Fold change VLDLR,"[2]; protein-coding, upregulated",1.741
same,Fold change YPEL1,"[2]; protein-coding, upregulated",1.706
same,Fold change ZNF546,"[2]; protein-coding, upregulated",1.757
same,IC50,[3],0.37 ± 0.06 µM
